Values quoted from earlier work, collected in patent US20020172713A1, “Micron sized bicarbonate particles and slurrys containing the same” (Church & Dwight, Co., Inc., priority 2001, published 2002).
Where two headings read alike, the source gives them in different places.

Conditions: prior art particles, dilution of about 70% by weight slurry with additional water

## O=C([O-])O.[Na+] [sodium bicarbonate]
10° C.
  alkali metal bicarbonate particles dissolved in dilution: 7%
22° C.
  alkali metal bicarbonate particles dissolved in dilution: 8.5%
